Experimental data: patent US20150045387A1, “Bi-Aromatic And Tri-Aromatic Compounds As NADPH Oxidase 2 (Nox2) Inhibitors” (The University of Surrey, priority 2011, published 2015)

How the values were obtained:
[1] = test system: mouse microvascular endothelial cells (SVEC4-10); test: cell viability by trypan blue exclusion and viable cell number counting, SVEC4-10; type: cell-based; settings: SVEC4-10, LMH001 5 and 10 μM, 24 h, trypan blue exclusion
Procedure: (§1) FIG. 7 is a graph showing no cytotoxicity of LMH001 on living mouse microvascular endothelial cells (SVEC4-10) and human liver hepatocyte cells (HepG2), assessed by trypan blue exclusion and viable cell number counting. Cells were cultured with LMH001 (5 and 10 μM) for 24 h. Cell viabilities of SVEC4-10 cells and HepG2 cells in the presence of LMH001 (5 and 10 μM) were expressed as % of alive cells compared to cells in the absence of LMH001 (control, 100%). Results are presented as mean±SD (n=3).
The mouse lymph node microvascular endothelial cell line (SVEC4-10) was from the American Type Culture Collection (CRL-2167) and grown in DMEM, containing 10% (v/v) heat inactivated foetal calf serum, 100 U/mL penicillin and […] streptomycin, in a humidified atmosphere at 37° C. with 5% CO2.
(§2) Cell viability and membrane integrity in the presence and absence of LMH001 were assessed using the trypan blue exclusion assay as described previously (15). Briefly, cells (1×10^6) were seeded onto 10 cm^2 culture dishes and allowed to adhere for 4 hours in 10% (v/v) FCS medium. […] At the time of experiment, cells were harvested by 0.25% Trypsin/EDTA, pelleted, resuspended in serum free medium and counted using a haemocytometer in the presence of trypan blue (0.4%) solution. The number of viable cells was calculated as a percentage of total cells.

[2] = test system: human liver hepatocyte cells (HepG2); test: cell viability by trypan blue exclusion and viable cell number counting, HepG2; type: cell-based; settings: HepG2, LMH001 5 and 10 μM, 24 h, trypan blue exclusion
Procedure: as §1
HepG2 is a human hepatocytic cell line (ATCC No. HB-8065) that was originally derived from liver tissue with a well differentiated hepatocellular carcinoma. HepG2 cells have been proven to be a suitable in vitro model system for the study of human hepatocytes, and the study of liver metabolism and toxicity. […]
as §2, with “(15).” for “(15). Briefly, cells (1×10^6) were seeded onto 10 cm^2 culture dishes and allowed to adhere for 4 hours in 10% (v/v) FCS medium.”

[3] = test system: human pulmonary endothelial cells (HPMEC); test: normal versus high glucose level-induced O2.- production, lucigenin-chemiluminescence; type: cell-based; settings: LMH001 5 μM, 24 h in culture, NADPH 100 μM
Procedure: FIG. 11 is a graph showing the effects of LMH001 in culture on normal glucose level versus high glucose level-induced O2.^− production by human pulmonary endothelial cells (HPMEC). HPMEC were cultured in the medium with normal level of glucose (5 mM) or with high level of glucose (40 mM) in the presence or absence of LMH001 (5 μM) for 24 h. Cells were harvested and cell homogenates were used for measuring NADPH (100 μM)-dependent O2.^− production by lucigenin-chemiluminescence (n=3 experiments).
O2^− production by different cell types was measured using lucigenin (5 μM)-chemiluminescence. A microplate luminometer (LumiStar, BMG) was used, which allows the examination of 96 samples at the same time with kinetic reading facilities. […] Dark-adapted lucigenin (5 μM) was added into the well through an auto-dispenser located in the dark chamber just before reading. The light emission was recorded over a 60 minute period and expressed as arbitrary MLU measured by the illuminometer. Each experiment was performed in triplicate and the mean of 3 blank readings was subtracted from each corrected value for each reading. […]
O2^− production was also studied using total cell homogenate (for the endothelial cells and the fibroblasts). […] Soluble protein concentration was determined using a kit from Bio-Rad Laboratories Ltd. (Hertfordshire, U.K.). […]

HepG2 cells = test: normal cell proliferation, MTS assay, HepG2; type: cell-based, human; settings: HepG2, LMH001 up to 10 μM, 24 h
Procedure: A) SVEC4-10 cells and HepG2 cells were cultured in the presence or absence of LHM001 (0-10 μM) for 24 h and tested for cell proliferation using a MTS assay kit. B) HL-60 cells were cultured in the presence or absence of LMH001 (0-10 μM), and cell proliferation was examined at 6, 12 and 24 h of culture.
HepG2 is a human hepatocytic cell line (ATCC No. HB-8065) that was originally derived from liver tissue with a well differentiated hepatocellular carcinoma. HepG2 cells have been proven to be a suitable in vitro model system for the study of human hepatocytes, and the study of liver metabolism and toxicity. HepG2 cells were grown in DMEM, containing 10% (v/v) heat inactivated foetal calf serum, 100 U/mL penicillin and […] streptomycin, in a humidified atmosphere at 37° C. with 5% CO2.
The ex vivo proliferative capabilities of isolated BMSC or cultured cells were analyzed using the MTS proliferation assay. […] After 24 hours in culture medium containing LMH001 (0-10 μM), proliferation was assessed using the MTS (CellTiter 96 AQ; Promega, Madison, USA) assay according to the manufacturer's protocol. The absorbance at 490 nm was read using an ELISA plate reader (Perkin elmer), and the proliferation index calculated relative to the controls. The mean of 3 blank readings was subtracted from each corrected value.

O=C(OCc1cccc(O)c1O)c1ccc(O)c(CO)c1 [LMH001, (2,3,-dihydroxyphenyl)methyl 4-hydroxy-3-(hydroxymethyl)benzoate]
cell viability (% of alive cells vs control) [1]: no significant difference
cell viability (% of alive cells vs control) [2]: no significant difference
cell O2.- production under normal glucose levels ([3]; glucose 5 mM): no significant effect
high glucose level-induced O2.- production ([3]; glucose 40 mM): inhibited completely
normal cell proliferation under physiological condition (HepG2 cells): no significant effect
